Reference: PubChem BioAssay AID210 (DTP/NCI, 2004)
Values joined by “and” are separate entries in the source; they are usually repeats but may differ in a detail not shown here. Equal entries are not always repeated. Inconclusive results and toxic doses are left out. The calls were made as follows: active = survival T/C of 150% or more; inactive = T/C below 125% in these data.

System: CD2F1 mice, ip Colon 26 adenocarcinoma, median survival T/C
Test: NCI In Vivo Anticancer Drug Screen. Data for tumor model Colon 26 Adenocarcinoma (intraperitoneal) in CD2F1 (CDF1) mice
Conditions: endpoint: median survival time, higher = longer survival
Experimental: The antitumor activity of compounds was measured in mice bearing transplantable tumors. Survival or tumor size were measured and the results are expressed as the measurement made in the treated group (T) divided by the measurement made in the vehicle treated control group (C). The tumor model used in this assay is Colon 26 Adenocarcinoma (intraperitoneal) in CD2F1 (CDF1) mice

Measured: T/C

CC(C)CCCCCCCCCCCCC(=O)NCC(=O)NC1C(O)C(O)C(Nc2ncnc3nc[nH]c23)OC1C(O)CO (stereo unspecified)
inactive: dose: 0.5 mg/kg/injection, schedule: Q04DX003 (ip), vehicle: Klucel (hydroxypropylcellulose) (HPC) 91 % of control | dose: 1.0 mg/kg/injection, schedule: Q04DX003 (ip), vehicle: Klucel (hydroxypropylcellulose) (HPC) 97 % of control | dose: 2.0 mg/kg/injection, schedule: Q04DX003 (ip), vehicle: Klucel (hydroxypropylcellulose) (HPC) 101 % of control | dose: 4.0 mg/kg/injection, schedule: Q04DX003 (ip), vehicle: Klucel (hydroxypropylcellulose) (HPC) 103 % of control

CC(=O)Nc1ccc(O)c(O)c1
inactive: dose: 12.5 mg/kg/injection, schedule: Q04DX003 (ip), vehicle: saline with Tween-80 94 % of control | dose: 25.0 mg/kg/injection, schedule: Q04DX003 (ip), vehicle: saline with Tween-80 106 % of control | dose: 50.0 mg/kg/injection, schedule: Q04DX003 (ip), vehicle: saline with Tween-80 96 % of control | dose: 100.0 mg/kg/injection, schedule: Q04DX003 (ip), vehicle: saline with Tween-80 120 % of control | dose: 200.0 mg/kg/injection, schedule: Q04DX003 (ip), vehicle: saline with Tween-80 100 % of control | dose: 400.0 mg/kg/injection, schedule: Q04DX003 (ip), vehicle: saline with Tween-80 108 % of control

C=C(NC(=O)C(=C)NC(=O)c1csc(C2=NC3c4csc(n4)C4NC(=O)c5csc(n5)C(C(C)(O)C(C)O)NC(=O)C5CSC(=N5)/C(=C/C)NC(=O)C(C(C)O)NC(=O)c5csc(n5)C3(CC2)NC(=O)C(C)NC(=O)C(=C)NC(=O)C(C)NC(=O)C(C(C)CC)NC2C=Cc3c(C(C)O)cc(nc3C2O)C(=O)OC4C)n1)C(N)=O (stereo unspecified)
inactive: dose: 5.0 mg/kg/injection, schedule: Q04DX003 (ip), vehicle: Klucel (hydroxypropylcellulose) (HPC) 120 % of control | dose: 10.0 mg/kg/injection, schedule: Q04DX003 (ip), vehicle: Klucel (hydroxypropylcellulose) (HPC) 90 % of control | dose: 20.0 mg/kg/injection, schedule: Q04DX003 (ip), vehicle: Klucel (hydroxypropylcellulose) (HPC) 100 % of control | dose: 40.0 mg/kg/injection, schedule: Q04DX003 (ip), vehicle: Klucel (hydroxypropylcellulose) (HPC) 110 % of control | dose: 80.0 mg/kg/injection, schedule: Q04DX003 (ip), vehicle: Klucel (hydroxypropylcellulose) (HPC) 102 % of control | dose: 160.0 mg/kg/injection, schedule: Q04DX003 (ip), vehicle: Klucel (hydroxypropylcellulose) (HPC) 92 % of control

O=[N+]([O-])O.[Ga]
inactive: dose: 12.5 mg/kg/injection, schedule: Q01DX005 (ip), vehicle: saline 97 % of control | dose: 12.5 mg/kg/injection, schedule: Q04DX003 (ip), vehicle: saline 103 % of control | dose: 25.0 mg/kg/injection, schedule: Q01DX005 (ip), vehicle: saline 96 % of control | dose: 25.0 mg/kg/injection, schedule: Q04DX003 (ip), vehicle: saline 108 % of control | dose: 50.0 mg/kg/injection, schedule: Q01DX005 (ip), vehicle: saline 87 % of control | dose: 50.0 mg/kg/injection, schedule: Q04DX003 (ip), vehicle: saline 106 % of control | dose: 100.0 mg/kg/injection, schedule: Q04DX003 (ip), vehicle: saline 87 % of control

Nc1nc(=S)c2ncn(C3CC(O)C(CO)O3)c2[nH]1 (stereo unspecified)
active: dose: 10.0 mg/kg/injection, schedule: Q04DX003 (ip), vehicle: saline with Tween-80 177 % of control | dose: 40.0 mg/kg/injection, schedule: Q04DX003 (ip), vehicle: saline with Tween-80 157 % of control
inactive: dose: 4.0 mg/kg/injection, schedule: Q04DX002 (ip), vehicle: saline with Tween-80 121 % of control | dose: 8.0 mg/kg/injection, schedule: Q04DX002 (ip), vehicle: saline with Tween-80 106 % of control | dose: 16.0 mg/kg/injection, schedule: Q04DX002 (ip), vehicle: saline with Tween-80 106 % of control and 119 % of control | dose: 32.0 mg/kg/injection, schedule: Q04DX002 (ip), vehicle: saline with Tween-80 102 % of control | dose: 64.0 mg/kg/injection, schedule: Q04DX002 (ip), vehicle: saline with Tween-80 124 % of control | dose: 128.0 mg/kg/injection, schedule: Q04DX002 (ip), vehicle: saline with Tween-80 116 % of control | dose: 256.0 mg/kg/injection, schedule: Q04DX002 (ip), vehicle: saline with Tween-80 109 % of control

Nc1ncn(C2OC(CO)C(O)C2O)c(=O)n1 (stereo unspecified)
inactive: dose: 13.0 mg/kg/injection, schedule: Q04DX003 (iv), vehicle: saline 107 % of control | dose: 21.0 mg/kg/injection, schedule: Q04DX003 (iv), vehicle: saline 92 % of control

COc1cccc2c1C(=O)c1c(O)c3c(c(O)c1C2=O)CC(O)(C(=O)CO)CC3OC1CC(N)C(O)C(C)O1 (stereo unspecified)
inactive: dose: 1.13 mg/kg/injection, schedule: Q04DX003 (ip), vehicle: water 107 % of control | dose: 2.25 mg/kg/injection, schedule: Q04DX003 (ip), vehicle: water 99 % of control and 113 % of control | dose: 4.5 mg/kg/injection, schedule: Q04DX003 (ip), vehicle: water 113 % of control | dose: 9.0 mg/kg/injection, schedule: Q04DX003 (ip), vehicle: water 116 % of control and 117 % of control | dose: 18.0 mg/kg/injection, schedule: Q04DX003 (ip), vehicle: water 117 % of control | dose: 36.0 mg/kg/injection, schedule: Q04DX003 (ip), vehicle: water 111 % of control | dose: 55.0 mg/kg/injection, schedule: Q07DX002 (iv), vehicle: saline 107 % of control | dose: 74.0 mg/kg/injection, schedule: Q07DX002 (iv), vehicle: saline 112 % of control | dose: 190.0 mg/kg/injection, schedule: Q07DX002 (iv), vehicle: saline 124 % of control

O=C1c2ccccc2C(=O)c2c(NCCCNCCO)ccc(NCCCNCCO)c21
inactive: dose: 16.0 mg/kg/injection, schedule: Q01DX009 (ip), vehicle: acid diluted with saline 107 % of control | dose: 32.0 mg/kg/injection, schedule: Q01DX009 (ip), vehicle: acid diluted with saline 111 % of control | dose: 64.0 mg/kg/injection, schedule: Q01DX009 (ip), vehicle: acid diluted with saline 123 % of control

CN(N=O)C(=O)N[C@@H](C=O)[C@@H](O)[C@H](O)[C@H](O)CO
inactive: dose: 12.5 mg/kg/injection, schedule: Q04DX003 (ip), vehicle: other 113 % of control | dose: 25.0 mg/kg/injection, schedule: Q04DX003 (ip), vehicle: other 110 % of control | dose: 50.0 mg/kg/injection, schedule: Q04DX003 (ip), vehicle: other 118 % of control | dose: 100.0 mg/kg/injection, schedule: Q04DX003 (ip), vehicle: other 124 % of control | dose: 200.0 mg/kg/injection, schedule: Q04DX003 (ip), vehicle: other 123 % of control
